Laboratory results as given in PubChem BioAssay (NCI).
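48-hour exposure; five concentrations; linearly interpolated endpoints. Definition used: TGI = concentration required for complete inhibition of growth.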

Assays:
Assay in all cases: NCI tumour cell line growth inhibition, 48 h
ACHN renal = system: ACHN renal
PC-3 prostate = system: PC-3 prostate
MDA-MB-231 breast = system: MDA-MB-231 breast
KM20L2 colon = system: KM20L2 colon
DMS 273 small cell lung = system: DMS 273 small cell lung
P388 leukemia = system: P388 leukemia
HOP-18 NSCLC = system: HOP-18 NSCLC
RXF-631 renal = system: RXF-631 renal
LXFL 529 NSCLC = system: LXFL 529 NSCLC
HS 578T breast = system: HS 578T breast
T-47D breast = system: T-47D breast

Question: For `CCOc1ccc2nc(-c3ccc(O)cc3)sc2c1`, which TGI (ACHN renal) is on record?
Answer: The TGI was > 100 µM.

Question: What about the TGI (PC-3 prostate) of the same compound?
Answer: The TGI was > 100 µM.

Question: What about the TGI (MDA-MB-231 breast) of the same compound?
Answer: Its TGI is > 100 µM.

Question: How did the TGI (KM20L2 colon) turn out when `CC1(C)CC23C4COC(=O)C2CCC1C3CC4=O` (stereo not drawn) was run?
Answer: The TGI was 54.6 µM.

Question: What about the TGI (DMS 273 small cell lung) of the same compound?
Answer: Its TGI is 71 µM.

Question: And the TGI (P388 leukemia)?
Answer: Its TGI is 111 µM.

Question: And the TGI (HOP-18 NSCLC)?
Answer: The TGI was 5.11 µM.

Question: `O=[N+]([O-])c1nc(-c2ccccn2)[nH]c1[N+](=O)[O-]` was tested. Which TGI (RXF-631 renal) did it give?
Answer: The TGI was > 100 µM.

Question: And the TGI (ACHN renal)?
Answer: The TGI was > 100 µM.

Question: And the TGI (KM20L2 colon)?
Answer: The TGI was > 100 µM.

Question: What about the TGI (DMS 273 small cell lung) of the same compound?
Answer: Its TGI is > 100 µM.

Question: And the TGI (LXFL 529 NSCLC)?
Answer: The TGI was > 100 µM.

Question: How did the TGI (ACHN renal) turn out when `O=C1OC(c2ccccc2)=N/C1=C\c1cccnc1` was run?
Answer: The TGI was > 100 µM.

Question: What about the TGI (PC-3 prostate) of the same compound?
Answer: The TGI was > 100 µM.

Question: What about the TGI (HS 578T breast) of the same compound?
Answer: Its TGI is > 100 µM.

Question: What does the source list for `N/C(=N\N=C/c1ccccc1O)NO`?
Answer: TGI (KM20L2 colon): > 100 µM; TGI (DMS 273 small cell lung): 28.7 µM; TGI (P388 leukemia): 18.7 µM; TGI (HOP-18 NSCLC): > 100 µM

Question: For `COc1cc2c(cc1OC)-c1cc3ccccc3c[n+]1CC2`, which TGI (ACHN renal) is on record?
Answer: The TGI was > 100 µM.

Question: What about the TGI (PC-3 prostate) of the same compound?
Answer: Its TGI is > 100 µM.

Question: What about the TGI (MDA-MB-231 breast) of the same compound?
Answer: The TGI was > 100 µM.

Question: What about the TGI (HS 578T breast) of the same compound?
Answer: The TGI was 94.7 µM.

Question: And the TGI (T-47D breast)?
Answer: The TGI was > 100 µM.

Question: Which results are given for `Nc1ncnc2c1ncn2C1OC(COP(=O)(O)O)C(O)C1O` (stereo not drawn)?
Answer: TGI (KM20L2 colon): > 50 µM; TGI (DMS 273 small cell lung): > 50 µM; TGI (P388 leukemia): > 37.3 µM; TGI (HOP-18 NSCLC): > 50 µM

Question: What does the source list for `O=C1OC[C@@H]2[C@@H](O)CCCCCN12`?
Answer: TGI (ACHN renal): > 100 µM; TGI (PC-3 prostate): > 100 µM; TGI (MDA-MB-231 breast): > 100 µM; TGI (HS 578T breast): > 100 µM; TGI (T-47D breast): > 100 µM
